{"source": "paper PMC7065771", "about": "“Dietary supplementation of recombinant antimicrobial peptide Epinephelus lanceolatus piscidin improves growth performance and immune response in Gallus gallus domesticus” (PLoS ONE, 2020)", "key": {"[1]": {"tested_on": "K. oxytoca", "assay": "Inhibition zone assay, flask culture supernatant", "type": "cell-based, Klebsiella oxytoca", "settings": "flask culture supernatant after 5 days of methanol induction", "experimental": "(§1) All assays were performed in triplicate.\nFig 4 Antimicrobial activity of rEP produced in P. pastoris by flask and fermenter methods. (a) rEP concentration in the yeast culture supernatant before and after induction with methanol for 24 h to 120 h in flask culture. […] The marker “-” represents Gram-negative; “+” represents Gram-positive. (b) The antibacterial activity of rEP produced by the fermenter method. Yeast were induced with methanol from 24 h to 120 h in a fermenter."}, "[2]": {"tested_on": "Riemerella anatipestifer (CFC27)", "assay": "Inhibition zone (disk diffusion) assay", "type": "cell-based", "settings": "disk paper 16 h at 37°C, shake-flask supernatant 120 h after induction", "experimental": "as §1\n(§2) The antimicrobial activity of rEP from flask cultures was evaluated by determining its ability to prevent growth of Gram-positive and Gram-negative bacteria with a disk diffusion assay. […] The most susceptible pathogens were R. anatipestifer (CFC27) and R. anatipestifer (CFC437) (Table 3a). Next, we investigated the thermostability of flask-fermented rEP with regard to its toxicity toward S. aureus (BCRC 10780), E. coli (BCRC 10675) and P. aeruginosa (ATCC 19660). Empty vector with no insert in P. pastoris was used as a control. Thermostability was measured by disk diffusion assay after cultures were incubated for 5 min at 40, 60, 80, or 100°C (Table 3b)."}, "[3]": {"tested_on": "Pseudomonas aeruginosa (ATCC 19660)", "assay": "Inhibition zone (disk diffusion) assay", "type": "cell-based", "settings": "then disk diffusion 16 h at 37°C", "experimental": "as §1, §2"}, "[4]": {"tested_on": "Escherichia coli (BCRC 10675)", "assay": "Inhibition zone (disk diffusion) assay", "type": "cell-based", "settings": "then disk diffusion 16 h at 37°C", "experimental": "as §1, §2"}, "[5]": {"tested_on": "Staphylococcus aureus (BCRC 10780)", "assay": "Inhibition zone (disk diffusion) assay", "type": "cell-based", "settings": "then disk diffusion 16 h at 37°C", "experimental": "as §1, §2"}, "[6]": {"tested_on": "Riemerella anatipestifer (RA3)", "assay": "Inhibition zone (disk diffusion) assay", "type": "cell-based", "settings": "disk paper 16 h at 37°C, shake-flask supernatant 120 h after induction", "experimental": "as §1, §2"}, "[7]": {"tested_on": "Riemerella anatipestifer (CFC437)", "assay": "Inhibition zone (disk diffusion) assay", "type": "cell-based", "settings": "disk paper 16 h at 37°C, shake-flask supernatant 120 h after induction", "experimental": "as §1, §2"}, "[8]": {"tested_on": "intestinal microflora", "assay": "Intestinal microflora in duodenum", "type": "in vivo, Gallus gallus domesticus", "settings": "1.5% rEP in diet, compared to spiraline A and basal diet groups (S3e Fig)", "experimental": "(§3) The growth promoting action of EP may be related to intestinal absorption and as such, small villus morphology was evaluated in a previous study. […] Moreover, growth enhancement has been observed in other reports. For example, feeding mice with PR39 peptide (4.7 kDa proline-rich AMP)-expressing Lactobacillus casei caused jejunum and duodenum villus height in the intestinal villi to increase. Use of recombinant porcine β-defensin 2 (rpBD2) as a feed additive for weaned piglets also produced increases in intestinal villus height of the duodenum and jejunum. Additionally, birds fed with AMP-A3 diet had increased villus height of the duodenum, jejunum and ileum. […] Fig). […] Supplementary file pone.0230021.s003.TIF: S3 Fig Effects of orally administered a rEP on posture, body weight, intestinal morphology, and gut flora. (a) After 28 days of feeding the 1.5% rEP-receiving chickens were larger than the spiraline A and basal diet controls. (b) The effects of feeding 1.5% rEP on body weight. (c) Representative picture of hematoxylin and eosin staining of intestinal villi and crypts. (d) The intestinal villus length and crypt depth were measured. (e) The effects of orally administrated the spiraline A, basal diet, and 1.5% rEP on intestinal microflora in G. g. domesticus. Relative proportions of bacterial families are shown. […]"}, "[9]": {"tested_on": "Gallus gallus domesticus", "assay": "Dietary supplementation trial, growth performance and survival", "type": "in vivo", "settings": "ad libitum, 35 days (table title: 4 weeks), n = 27; for FE (feed efficiency) / PER (protein efficiency ratio) / Weight gain: mean ± SD", "excerpt": "A total of 189 male or female 2-day-old G. g. domesticus were randomly assigned to seven dietary treatment groups, including rEP (0.75, 1.5, 3.0, 6.0 and 12%), spiraline-A (Juily Pharmaceutical Co., LTD. San Sia, Taipei Hsien, Taiwan), and basal diet groups. Each treatment group consisted of one cage with twenty-seven G. g. domesticus. The composition of the fodder is presented in S1b–S1d Table. The animals were allowed ad libitum access to fodder and water for the duration of the trial, beginning from 3 days of age. The total time of feeding was 35 days. The G. g. domesticus were maintained in a cage (animal container) with a constant environment (28.9–37.8°C, 12/12 h light-dark cycle). rEP fodder and fecal sewage were not directly discharged to the outside.\nBody weight and survival rate were monitored daily during the experimental period. The weight gain, feed efficiency (FE), protein efficiency ratio (PER), and survival percentage were calculated. After 35 days of treatment, the G. g. domesticus were euthanized, blood samples were collected and serum was obtained by centrifugation (3000 ×g for 15 min at 4°C). Serum was kept at -80°C until analysis. Enzyme-linked immunosorbent assay (ELISA) was performed in accordance with the manufacturer’s standard procedures to determine the levels of immunological factors, including TNF-α, Interleukin-1β, Interleukin-6, Interleukin-10, Lysozyme, Immunoglobin-G (IgG), and Interferon-γ. Chicken serum samples were analyzed with ELISA kits from ABclonal Inc. (Woburn, MA, USA). After the reaction was completed, the optical density (OD) was measured at 450 nm on a microplate reader (SpectraMax® i3, Molecular Devices, Lagerhausstrasse, Wals, Austria).\nData were analyzed with Prism 7 software (GraphPad Inc., La Jolla, CA, USA). Values represent the mean ± standard deviation (SD). P < 0.05 was considered significant for one-way Analysis of variance (ANOVA) with Tukey’s multiple comparison test."}, "[10]": {"tested_on": "duodenum villus", "assay": "Intestinal morphology, histological analysis", "type": "in vivo, Gallus gallus domesticus", "settings": "rEP animals compared to the control group, hematoxylin and eosin staining (S3 Fig)", "experimental": "as §3"}, "[11]": {"settings": "thermostability: flask supernatant incubated 5 min at 40°C"}, "[12]": {"settings": "thermostability: flask supernatant incubated 5 min at 60°C"}, "[13]": {"settings": "thermostability: flask supernatant incubated 5 min at 80°C"}, "[14]": {"settings": "diet with 0.75% rEP spray-dried powder"}, "[15]": {"settings": "diet with 1.5% rEP spray-dried powder"}, "[16]": {"settings": "diet with 3.0% rEP spray-dried powder"}, "[17]": {"settings": "diet with 6.0% rEP spray-dried powder"}, "[18]": {"settings": "diet with 12.0% rEP spray-dried powder"}}, "data": [{"sequence": "EFFIFHIIKGLFHAGRMIHGLVNRRRHRHHHHHH [rEP, recombinant His-tagged Epinephelus lanceolatus piscidin from Pichia pastoris, used as crude culture supernatant or spray-dried powder]", "values": [{"measurement": "Inhibition zone", "setting": "[1]", "value": "large inhibition zones"}, {"measurement": "Inhibition zone diameter", "setting": "[2]; first of two values printed", "value": 12, "unit": "mm"}, {"measurement": "Inhibition zone diameter", "setting": "[2]; second of two values printed", "value": 14, "unit": "mm"}, {"measurement": "Inhibition zone diameter after heat treatment", "setting": "[3]; [11]", "value": "10.1±0.3", "unit": "mm"}, {"measurement": "Inhibition zone diameter after heat treatment", "setting": "[3]; [12]", "value": "9.5±0.2", "unit": "mm"}, {"measurement": "Inhibition zone diameter after heat treatment", "setting": "[4]; [11]", "value": "9.0±1.0", "unit": "mm"}, {"measurement": "Inhibition zone diameter after heat treatment", "setting": "[4]; [12]", "value": "9.0±1.0", "unit": "mm"}, {"measurement": "Inhibition zone diameter after heat treatment", "setting": "[4]; [13]", "value": "8.6±0.5", "unit": "mm"}, {"measurement": "Inhibition zone diameter after heat treatment", "setting": "[5]; [11]", "value": "10.6±1.5", "unit": "mm"}, {"measurement": "Inhibition zone diameter after heat treatment", "setting": "[5]; [12]", "value": "9.1±0.7", "unit": "mm"}, {"measurement": "Inhibition zone diameter after heat treatment", "setting": "[5]; [13]", "value": "9.3±0.5", "unit": "mm"}, {"measurement": "Inhibition zone diameter after heat treatment", "setting": "[5]; thermostability: flask supernatant incubated 5 min at 100°C", "value": "9.3±0.5", "unit": "mm"}, {"measurement": "Inhibition zone diameter", "setting": "[6]; first of two values printed", "value": "10, 10 mm"}, {"measurement": "Inhibition zone diameter", "setting": "[6]; second of two values printed", "value": "10, 10 mm"}, {"measurement": "Inhibition zone diameter", "setting": "[7]; first of two values printed", "value": 11, "unit": "mm"}, {"measurement": "Inhibition zone diameter", "setting": "[7]; second of two values printed", "value": 13, "unit": "mm"}, {"measurement": "Numbers of Enterobacteriaceae and Staphylococcaceae in duodenum", "setting": "[8]", "value": "decreasing"}, {"measurement": "Numbers of Lactobacillaceae and Entercoccaceae in duodenum", "setting": "[8]", "value": "significantly increased"}, {"measurement": "FE (feed efficiency)", "setting": "[9]; [14]", "value": "0.53±0.03"}, {"measurement": "PER (protein efficiency ratio)", "setting": "[9]; [14]", "value": "1.58±0.09"}, {"measurement": "Weight gain", "setting": "[9]; [14]", "value": "2531.80±142.13", "unit": "%"}, {"measurement": "Survival", "setting": "[9]; [14]", "value": 92.60, "unit": "%"}, {"measurement": "FE (feed efficiency)", "setting": "[9]; [15]", "value": "0.58±0.03"}, {"measurement": "PER (protein efficiency ratio)", "setting": "[9]; [15]", "value": "1.8±0.08"}, {"measurement": "Weight gain", "setting": "[9]; [15]", "value": "2727.42±116.08", "unit": "%"}, {"measurement": "Survival", "setting": "[9]; [15]", "value": 100, "unit": "%"}, {"measurement": "FE (feed efficiency)", "setting": "[9]; [16]", "value": "0.57±0.02"}, {"measurement": "PER (protein efficiency ratio)", "setting": "[9]; [16]", "value": "1.86±0.08"}, {"measurement": "Weight gain", "setting": "[9]; [16]", "value": "2809.71±119.30", "unit": "%"}, {"measurement": "Survival", "setting": "[9]; [16]", "value": 96.20, "unit": "%"}, {"measurement": "FE (feed efficiency)", "setting": "[9]; [17]", "value": "0.57±0.02"}, {"measurement": "PER (protein efficiency ratio)", "setting": "[9]; [17]", "value": "2.03±0.08"}, {"measurement": "Weight gain", "setting": "[9]; [17]", "value": "2738.11±109.04", "unit": "%"}, {"measurement": "Survival", "setting": "[9]; [17]", "value": 100, "unit": "%"}, {"measurement": "FE (feed efficiency)", "setting": "[9]; [18]", "value": "0.48±0.04"}, {"measurement": "PER (protein efficiency ratio)", "setting": "[9]; [18]", "value": "2.17±0.16"}, {"measurement": "Weight gain", "setting": "[9]; [18]", "value": "2181.26±158.95", "unit": "%"}, {"measurement": "Survival", "setting": "[9]; [18]", "value": 96.20, "unit": "%"}, {"measurement": "Duodenum villus height", "setting": "[10]", "value": "significantly greater"}]}]}
